Patent US20100310535A1, “METHOD FOR EXPANDING HEMATOPOIETIC STEM CELLS USING HETEROCYCLIC COMPOUND” (Nissan Chemical Industries, Ltd., priority 2007, published 2010)

System: human cord blood-derived CD34^+ cells
Experiment: Expansion of CD34^+ cells from human cord blood-derived CD34^+ cells (7-day liquid culture with SCF, flow cytometry)
Assay type: cell-based
Conditions: 168 h, based on the number of CD34^+ cells in the absence of compound, 100 ng/mL SCF, 7 days, read-out: Expansion efficiency; for fold induction at 1 µg/mL: 1 μg/mL compound; for fold induction at 0.3 µg/mL: 0.3 μg/mL compound
Method: Commercially available human cord blood-derived CD34^+ cells (Cambrex Bio Science Walkersville) were plated on a 12-well plate (Corning) (from 5000 to 10000 cells/1 mL/well). As the culture medium, StemSpan SFEM (Stemcell Technologies) containing 100 ng/mL SCF (R&D Systems) was used, and Compounds Nos. 1 to 16 dissolved in dimethyl sulfoxide were added in an amount of 0.1% (v/v) to a final concentration of 0.3 or 1 μg/mL.
After the cells were incubated in liquid culture at 37° C. for 7 days in a CO2 incubator (in an atmosphere containing 5 vol % CO2), the total number of cells was counted by trypan blue assay (Invitrogen) or Flow-Count™ fluorosphere assay (Beckman Coulter). The number of CD34^+ cells was calculated as follows. After the incubation, the cells in the liquid culture was stained with a CD34 antibody (PE, Becton, Dickinson and Company). The stained cells were analyzed with a flow cytometer (Beckman Coulter) to determined the proportion of CD34^+ cells, which was multiplied by the total number of cells to calculate the number of CD34^+ cells.
The expansion efficiencies in the presence of 0.3 μg/mL or 1 μg/mL of compounds based on the number of CD34^+ cells in the absence of them are shown in Table 3 on a scale of A for expansion efficiencies of 3 or greater, B for expansion efficiencies of at least 2 and less than 3, and C for expansion efficiencies of at least 1.5 and less than 2.

Structure (SMILES) | fold induction at 1 µg/mL | fold induction at 0.3 µg/mL
C/C(=N\NC(=S)N1CCC(C(=O)O)CC1)c1csc(-c2ccc(Cl)c(Cl)c2)c1O [compound 1] | 2 to 3 | 
C/C(=N\NC(=S)N1CCC(C(=O)O)CC1)c1csc(-c2ccc(C(F)(F)F)cc2)c1O [compound 2] | 2 to 3 | 
C/C(=N\NC(=S)N1CCC(C(=O)O)CC1)c1nn(C)c(-c2ccc(C(F)(F)F)cc2)c1O [compound 3] | 1.5 to 2 | 
COC(=O)C1CCN(C(=S)N/N=C(\C)c2nn(C)c(-c3ccc(Cl)c(Cl)c3)c2O)CC1 [compound 4] | 1.5 to 2 | 
COC(=O)C1CCN(C(=S)N/N=C(\C)c2csc(-c3ccc(OC)cc3)c2O)CC1 [compound 5] | 1.5 to 2 | 
COc1ccc(-c2scc(/C(C)=N/NC(=S)N3CCC(C(=O)O)CC3)c2O)cc1 [compound 6] | ≥ 3 | 
C/C(=N\NC(=S)N1CCC(C(=O)O)CC1)c1csc(-c2ccc(C(C)(C)C)cc2)c1O [compound 7] | ≥ 3 | 
C/C(=N\NC(=S)N1CCC(C(=O)O)CC1)c1csc(-c2ccc(Br)cc2)c1O [compound 8] | ≥ 3 | 
CCCNC(=O)C1CCN(C(=S)N/N=C(\C)c2nn(C)c(-c3ccc(C(F)(F)F)cc3)c2O)CC1 [compound 9] | 2 to 3 | 
C/C(=N\NC(=S)N1CCC(C(=O)O)CC1)c1csc(-c2ccc(C)c(C)c2)c1O [compound 10] | ≥ 3 | 
C/C(=N\NC(=S)N1CCC(C(=O)O)CC1)c1csc(-c2ccc(OC(F)(F)F)cc2)c1O [compound 11] | ≥ 3 | 
C/C(=N\NC(=S)N1CCC(C(=O)O)CC1)c1csc(-c2cccc(Cl)c2)c1O [compound 12] | 2 to 3 | 
C/C(=N\NC(=S)N1CCC(C(=O)O)CC1)c1csc(-c2ccc(Cl)cc2)c1O [compound 13] | ≥ 3 | 
C/C(=N\NC(=S)N1CCC(C(=O)NCc2ccncc2)CC1)c1csc(-c2ccc(Br)cc2)c1O [compound 14] |  | 1.5 to 2
C/C(=N\NC(=S)N1CCC(C(=O)NCC(=O)O)CC1)c1csc(-c2ccc(Br)cc2)c1O [compound 16] |  | 2 to 3
